This assay has as its target Rv2887 (Mycobacterium tuberculosis, UniProt P9WME9). Nature of the assay: biochemical.

What is called Kd is the equilibrium constant for the complex coming apart.

The structures appear in SMILES notation.

Chain of Rv2887 (P9WME9 whole entry): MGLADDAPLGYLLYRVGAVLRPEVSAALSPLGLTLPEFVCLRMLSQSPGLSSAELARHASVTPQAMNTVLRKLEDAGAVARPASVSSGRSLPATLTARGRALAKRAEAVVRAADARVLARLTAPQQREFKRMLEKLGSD

Molecule `COC(=O)[C@@H]1CCC(=O)N1Cc1cc2ccc(OC)cc2c2cc(OC)c(OC)cc12` [PP1S] came in with a dissociation constant Kd of 274 µM.
The molecule `CCCCOc1ccc2cc(CN3C(=O)CC[C@H]3C(=O)OC)c3cc(OC)c(OC)cc3c2c1` [PP2S] came in with a Kd of 250 µM.

The record behind these values is article PMC9598822, “Increased Susceptibility of Mycobacterium tuberculosis to Ethionamide by Expressing PPs-Induced Rv0560c” (Antibiotics, 2022).
